Experimental data from patent US20100273876A1, “ANTIBACTERIAL FORMULATION COMPRISING A DIALKYL SULPHOSUCCINATE AND A CARBANILIDE ANTIBACTERIAL AGENT” (priority 2007, published 2010).

Tests used:
Format in all cases: cell-based, Propionibacterium acnes
P. acnes NCTC 737 = assay: Well diffusion assay; details: gel (Solutol HS 15, ethanol, hydroxyethyl cellulose, water) with 5% w/w DOSS and/or 0.2% w/w TCC, diluted 1:2 with placebo gel
Method: The propionibacteria were cultured and maintained on Wilkins-Chalgren Anaerobe Medium (agar and broth) at pH 6.0; all cultures were incubated anaerobically at 37° C. for 72 hours. A hole with a diameter of 8 mm was bored into the centre of an agar plate inoculated (swabbed) with the test-microorganism using a sterile “cork” borer (size No. 4). A volume (100 μl unless stated otherwise) of the test compound(s), either formulated or in a suitable solvent, was then placed into the bored hole. The plate was incubated under the conditions described above, following which it was examined visually for signs of microbial growth. If the test compound had antimicrobial activity, a circular zone of no growth would be obtained around the bored hole. The diameter of this zone of “inhibition” was measured using a ProtoCOL™ automated zone sizer (Synbiosis, Cambridge, UK). In general, a greater diameter and/or area of the zone of inhibition indicates a greater antimicrobial activity in the relevant test compound, although other factors such as test compound mobility through the agar gel, and the extent to which a compound is released from a formulation, may also influence the result.

P. acnes PRP-017 = assay: (S)DDA disc diffusion
Method: (§1) The propionibacteria were cultured and maintained on Wilkins-Chalgren Anaerobe Medium (agar and broth) at pH 6.0; all cultures were incubated anaerobically at 37° C. for 72 hours.
(§2) A sterile paper disc was impregnated with a sample of the test compound in a suitable solvent and 30 minutes allowed for the solvents to evaporate (where possible). The disc was then placed on an agar plate onto which the test micro-organism had been inoculated. The plate was then incubated under the conditions described above, following which it was examined visually for signs of microbial growth. If the test compound had antimicrobial activity, a circular zone of no growth would be obtained around the disc. The diameter of this zone of “inhibition” was measured using a ProtoCOL™ automated zone sizer (Synbiosis, Cambridge, UK). In general, a greater diameter and/or area of the zone of inhibition indicates a greater antimicrobial activity in the relevant test compound, although other factors such as test compound mobility through the agar gel may also influence the result.
(§3) Two test a compounds A and B were placed on a single paper disc and the above described DDA procedure repeated. An increase in diameter of the zone of inhibition, compared to the greater of the zone diameters for the two compounds individually, was taken to indicate potential antimicrobial synergy. In practical terms, an increase of greater than 5 mm could be treated as significant.
(§4) Both the DDA and the SDDA test may be carried out using an agar gel supplemented with lipid and/or salt to simulate some of the major components present in human skin and to assess whether these substances might reduce the antimicrobial activity observed for the test compound. Performance under these conditions can provide a more reliable indication of activity on topical application. The supplements used in Examples 1, 11, 12 and 13 below were lipid (either Tween™ 80 at 1% v/v (Example 1) or triolein at 1% v/v (Examples 11, 12 and 13) and sodium chloride (100 mM).

P. acnes PRP-007 = assay: (S)DDA disc diffusion
Method: as §1, §2, §3, §4

P. acnes PRP-059 = assay: (S)DDA disc diffusion
Method: as §1, §2, §3, §4

P. acnes PRP-010 = assay: (S)DDA disc diffusion
Method: as §1, §2, §3, §4

P. acnes PRP-003 = assay: (S)DDA disc diffusion
Method: as §1, §2, §3, §4

P. acnes PRP-068 = assay: (S)DDA disc diffusion
Method: as §1, §2, §3, §4

P. acnes PRP-026 = assay: (S)DDA disc diffusion
Method: as §1, §2, §3, §4

P. acnes PRP-039 = assay: (S)DDA disc diffusion; details: for DDA: P. acnes PRP-039 (Tet/MLS), 200 μg TCC or 50 μg DOSS per disc
Method: as §1, §2, §3, §4

P. acnes PRP-004 = assay: (S)DDA disc diffusion
Method: as §1, §2, §3, §4

P. acnes PRP-002 = assay: (S)DDA disc diffusion
Method: as §1, §2, §3, §4

P. acnes PRP-102 = assay: (S)DDA disc diffusion
Method: as §1, §2, §3, §4

P. acnes PRP-053 = assay: (S)DDA disc diffusion
Method: as §1, §2, §3, §4

P. acnes PRP-101 = assay: (S)DDA disc diffusion
Method: as §1, §2, §3, §4

[1] = P. acnes PRP-017 (MLS), 200 μg TCC or 50 μg DOSS per disc
[2] = P. acnes PRP-007 (Clin), 200 μg TCC or 50 μg DOSS per disc
[3] = P. acnes PRP-059 (MLS), 200 μg TCC or 50 μg DOSS per disc
[4] = P. acnes PRP-010 (MLSK), 200 μg TCC or 50 μg DOSS per disc
[5] = P. acnes PRP-003 (Tet), 200 μg TCC or 50 μg DOSS per disc
[6] = P. acnes PRP-068 (Ery), 200 μg TCC or 50 μg DOSS per disc
[7] = P. acnes PRP-026 (MLS), 200 μg TCC or 50 μg DOSS per disc
[8] = P. acnes PRP-004 (Tet), 200 μg TCC or 50 μg DOSS per disc
[9] = P. acnes PRP-002 (Tet/MLS), 200 μg TCC or 50 μg DOSS per disc
[10] = P. acnes PRP-102 (Tet/MLS), 200 μg TCC or 50 μg DOSS per disc
[11] = P. acnes PRP-053 (Tet/MLS), 200 μg TCC or 50 μg DOSS per disc
[12] = P. acnes PRP-101 (Tet/MLS), 200 μg TCC or 50 μg DOSS per disc

dioctyl sodium sulphosuccinate [DOSS] was tested, and the “(S)DDA” value (P. acnes NCTC 737) was 42.40 mm, the DDA (P. acnes PRP-017; [1]) was 28.98 mm and the DDA (P. acnes PRP-017; P. acnes PRP-017, 200 μg per disc) was 47.94 mm. The “DDA + salt” value (P. acnes PRP-017; P. acnes PRP-017, 200 μg per disc, sodium chloride 100 mM) was 47.63 mm, the “DDA + lipid” value (P. acnes PRP-017; P. acnes PRP-017, 200 μg per disc, triolein 1% v/v) was 44.82 mm and the DDA (P. acnes PRP-007; [2]) was 21.38 mm. For the same molecule, the DDA (P. acnes PRP-007; P. acnes PRP-007, 200 μg per disc) was 47.32 mm, the “DDA + salt” value (P. acnes PRP-007; P. acnes PRP-007, 200 μg per disc, sodium chloride 100 mM) was 42.96 mm and the “DDA + lipid” value (P. acnes PRP-007; P. acnes PRP-007, 200 μg per disc, triolein 1% v/v) was 44.82 mm. The DDA (P. acnes PRP-059; [3]) was 11.82 mm, the DDA (P. acnes PRP-059; P. acnes PRP-059, 200 μg per disc) was 43.58 mm and the “DDA + salt” value (P. acnes PRP-059; P. acnes PRP-059, 200 μg per disc, sodium chloride 100 mM) was 44.20 mm. For the same molecule, the “DDA + lipid” value (P. acnes PRP-059; P. acnes PRP-059, 200 μg per disc, triolein 1% v/v) was 44.82 mm, the DDA (P. acnes PRP-010; [4]) was 26.82 mm and the DDA (P. acnes PRP-010; P. acnes PRP-010, 200 μg per disc) was 46.69 mm. The “DDA + salt” value (P. acnes PRP-010; P. acnes PRP-010, 200 μg per disc, sodium chloride 100 mM) was 46.07 mm, the “DDA + lipid” value (P. acnes PRP-010; P. acnes PRP-010, 200 μg per disc, triolein 1% v/v) was 39.84 mm and the DDA (P. acnes PRP-003; [5]) was 27.95 mm. For the same molecule, the DDA (P. acnes PRP-003; P. acnes PRP-003, 200 μg per disc) was 42.96 mm, the “DDA + salt” value (P. acnes PRP-003; P. acnes PRP-003, 200 μg per disc, sodium chloride 100 mM) was 46.69 mm and the “DDA + lipid” value (P. acnes PRP-003; P. acnes PRP-003, 200 μg per disc, triolein 1% v/v) was 43.58 mm. For the same molecule, the DDA (P. acnes PRP-068; [6]) was 25.59 mm, the DDA (P. acnes PRP-068; P. acnes PRP-068, 200 μg per disc) was 48.87 mm and the “DDA + salt” value (P. acnes PRP-068; P. acnes PRP-068, 200 μg per disc, sodium chloride 100 mM) was 46.69 mm. For the same molecule, the “DDA + lipid” value (P. acnes PRP-068; P. acnes PRP-068, 200 μg per disc, triolein 1% v/v) was 44.51 mm, the DDA (P. acnes PRP-026; [7]) was 28.26 mm and the DDA (P. acnes PRP-026; P. acnes PRP-026, 200 μg per disc) was 49.81 mm. The “DDA + salt” value (P. acnes PRP-026; P. acnes PRP-026, 200 μg per disc, sodium chloride 100 mM) was 48.25 mm, the “DDA + lipid” value (P. acnes PRP-026; P. acnes PRP-026, 200 μg per disc, triolein 1% v/v) was 43.89 mm and the DDA (P. acnes PRP-039) was 23.02 mm. For the same molecule, the “DDA + salt” value (P. acnes PRP-039; P. acnes PRP-039, 200 μg per disc, sodium chloride 100 mM) was 46.38 mm, the DDA (P. acnes PRP-004; [8]) was 26.62 mm and the DDA (P. acnes PRP-004; P. acnes PRP-004, 200 μg per disc) was 48.56 mm. For the same molecule, the “DDA + salt” value (P. acnes PRP-004; P. acnes PRP-004, 200 μg per disc, sodium chloride 100 mM) was 43.27 mm, the “DDA + lipid” value (P. acnes PRP-004; P. acnes PRP-004, 200 μg per disc, triolein 1% v/v) was 46.07 mm and the DDA (P. acnes PRP-002; [9]) was 31.76 mm. For the same molecule, the DDA (P. acnes PRP-002; P. acnes PRP-002, 200 μg per disc) was 49.49 mm, the “DDA + salt” value (P. acnes PRP-002; P. acnes PRP-002, 200 μg per disc, sodium chloride 100 mM) was 51.36 mm and the “DDA + lipid” value (P. acnes PRP-002; P. acnes PRP-002, 200 μg per disc, triolein 1% v/v) was 48.25 mm. For the same molecule, the DDA (P. acnes PRP-102; [10]) was 22.81 mm, the DDA (P. acnes PRP-102; P. acnes PRP-102, 200 μg per disc) was 44.82 mm and the “DDA + salt” value (P. acnes PRP-102; P. acnes PRP-102, 200 μg per disc, sodium chloride 100 mM) was 41.71 mm. The “DDA + lipid” value (P. acnes PRP-102; P. acnes PRP-102, 200 μg per disc, triolein 1% v/v) was 37.98 mm, the DDA (P. acnes PRP-053; [11]) was 17.78 mm and the DDA (P. acnes PRP-053; P. acnes PRP-053, 200 μg per disc) was 49.49 mm. For the same molecule, the “DDA + salt” value (P. acnes PRP-053; P. acnes PRP-053, 200 μg per disc, sodium chloride 100 mM) was 44.82 mm, the “DDA + lipid” value (P. acnes PRP-053; P. acnes PRP-053, 200 μg per disc, triolein 1% v/v) was 42.02 mm and the DDA (P. acnes PRP-101; [12]) was 14.59 mm. The DDA (P. acnes PRP-101; P. acnes PRP-101, 200 μg per disc) was 41.40 mm and the “DDA + lipid” value (P. acnes PRP-101; P. acnes PRP-101, 200 μg per disc, triolein 1% v/v) was 40.47 mm.

In the case of O=C(Nc1ccc(Cl)cc1)Nc1ccc(Cl)c(Cl)c1 [TCC, N-(4-chlorophenyl)-N′-(3,4-dichlorophenyl) urea], the “(S)DDA” value (P. acnes NCTC 737) is reported as 0 mm, the DDA (P. acnes PRP-017; [1]) is reported as 18.81 mm and the DDA (P. acnes PRP-007; [2]) is reported as 13.87 mm. The DDA (P. acnes PRP-059; [3]) was 19.73 mm, the DDA (P. acnes PRP-010; [4]) was 22.81 mm and the DDA (P. acnes PRP-003; [5]) was 23.64 mm. It also gave a DDA (P. acnes PRP-068; [6]) of 22.30 mm, a DDA (P. acnes PRP-026; [7]) of 22.71 mm and a DDA (P. acnes PRP-039) of 18.91 mm. It also gave a DDA (P. acnes PRP-004; [8]) of 15.42 mm, a DDA (P. acnes PRP-002; [9]) of 34.22 mm and a DDA (P. acnes PRP-102; [10]) of 14.59 mm. It also gave a DDA (P. acnes PRP-053; [11]) of 21.58 mm and a DDA (P. acnes PRP-101; [12]) of 16.75 mm.
